Assay results reported in patent publication US20240409585A1, “MACROCYCLIC IMMUNOMODULATORS” (priority 2021, published 2024).
Bridge positions count the residues as written; N and C are the ends. Square brackets hold non-standard residues; d marks the D form. Peptide text beside a SMILES is read from it. * marks the point of attachment. ξ: configuration not given here. Phe(3-CF3) = N[C@@H](Cc1cccc(C(F)(F)F)c1)C(=O)O; Ala(morpholin-4-yl) = N[C@@H](CN1CCOCC1)C(=O)O; Phe(4-COOH) = N[C@@H](Cc1ccc(C(=O)O)cc1)C(=O)O; Bip = N[C@@H](Cc1ccc(-c2ccccc2)cc1)C(=O)O; Phe(3-Me) = Cc1cccc(C[C@H](N)C(=O)O)c1; Cha = N[C@@H](CC1CCCCC1)C(=O)O; Ile(3ξ) = CCC(C)[C@H](N)C(=O)O; Thr(3ξ) = CC(O)[C@H](N)C(=O)O; ξCha = NC(CC1CCCCC1)C(=O)O; Carboxymethyl = O=C(O)C*; NMeA = CN[C@@H](C)C(=O)O; Dab = NCC[C@H](N)C(=O)O

target: T1, PE-labeled human PD-L1-Ig binding to Jurkat cell line over-expressing human PD-1 (Jurkat-PD-1) (Homo sapiens, UniProt Q15116); assay: Jurkat-PD-1 Cell Binding High-Content Screening Assay (CBA): Method 1; conditions: Jurkat-PD-1 cells, PE-labeled PD-L1-Ig; μM; read-out: CBA Method 1 μM
T1 construct: expressed in transfected cells; host or cells: Jurkat
T1 sequence (Q15116 25-288): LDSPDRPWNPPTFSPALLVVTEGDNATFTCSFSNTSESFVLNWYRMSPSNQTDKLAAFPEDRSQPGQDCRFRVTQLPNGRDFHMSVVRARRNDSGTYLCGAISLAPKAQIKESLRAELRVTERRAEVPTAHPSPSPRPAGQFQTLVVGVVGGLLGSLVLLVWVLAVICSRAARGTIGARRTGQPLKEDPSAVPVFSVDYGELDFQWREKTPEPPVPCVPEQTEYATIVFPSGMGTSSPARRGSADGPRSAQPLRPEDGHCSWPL

| SMILES | IC50 [µM] |
| --- | --- |
| Cc1cccc(C[C@@H]2NC(=O)[C@H](CC(=O)O)NC(=O)[C@H](Cc3ccc(OCC(=O)O)cc3)NC(=O)[C@H](C(C)O)NC(=O)CSC[C@@H](C(=O)N[C@@H](CO)C(=O)NCC(=O)N[C@@H](CO)C(N)=O)NC(=O)[C@H](C(C)O)NC(=O)[C@H](C(C)C)NC(=O)C(CC3CCCCC3)NC(=O)[C@H](CCN)NC(=O)[C@@H](CC(C)C)NC(=O)[C@H](C)N(C)C(=O)[C@H](Cc3ccc(OCC(=O)O)cc3)NC(=O)[C@H](Cc3ccc(-c4ccccc4)cc3)NC(=O)[C@H](Cc3ccc(C(=O)O)cc3)NC2=O)c1 (stereo partly drawn) [Example 5004] ({CH2CO}-[Thr(3ξ)]Y(Carboxymethyl)D[Phe(3-Me)][Phe(4-COOH)][Bip]Y(Carboxymethyl)[NMeA][dL][Dab][ξCha]V[Thr(3ξ)]CSGS-NH2; thioether N-14) | 0.03 |

same assay, conditions: Jurkat-hPD-1 cells, PE-labeled PD-L1-Ig 20 nM final; read-out: Jurkat HPDL1 PD1 IC50 (uM) (Method 1)

| SMILES | IC50 [µM] |
| --- | --- |
| CC(C)[C@@H]1NC(=O)[C@H](CC2CCCCC2)NC(=O)[C@H](CCN)NC(=O)CNC(=O)[C@H](C)N(C)C(=O)[C@H](Cc2ccc(C(=O)O)cc2)NC(=O)[C@H](Cc2ccc(-c3ccccc3)cc2)NC(=O)[C@H](Cc2ccc(C(=O)O)cc2)NC(=O)[C@H](Cc2cccc(C(F)(F)F)c2)NC(=O)[C@H](CC(=O)O)NC(=O)[C@H](Cc2ccc(C(=O)O)cc2)NC(=O)[C@H](CN2CCOCC2)NC(=O)CSC[C@@H](C(=O)N[C@@H](CCN)C(N)=O)NC(=O)[C@H](CCC(=O)O)NC1=O [Example 2286] ({CH2CO}-[Ala(morpholin-4-yl)][Phe(4-COOH)]D[Phe(3-CF3)][Phe(4-COOH)][Bip][Phe(4-COOH)][NMeA]G[Dab][Cha]VEC[Dab]-NH2; thioether N-14) | 0.08 |
| CC[C@H](C)[C@@H]1NC(=O)[C@H](Cc2ccc(-c3ccccc3)cc2)NC(=O)[C@H](C(C)C)NC(=O)[C@H](Cc2c[nH]c3ccccc23)NC(=O)[C@H](CC(=O)O)NC(=O)[C@H](Cc2ccc(O)cc2)NC(=O)[C@H](CC(N)=O)NC(=O)CSC[C@@H](C(=O)N[C@@H](C)C(N)=O)NC(=O)[C@H]([C@@H](C)O)NC(=O)[C@H](C(C)C)NC(=O)[C@H](CC2CCCCC2)NC(=O)[C@H](CCCNC(=N)N)NC(=O)[C@@H](CC(C)C)NC(=O)[C@H](C)N(C)C1=O [Compound 1495] ({CH2CO}-NYDWV[Bip]I[NMeA][dL]R[Cha]VTCA-NH2; thioether N-14) | 0.04 |
| Cc1cccc(C[C@@H]2NC(=O)[C@H](Cc3ccccc3)NC(=O)CSC[C@@H](C(=O)NCC(N)=O)NC(=O)[C@H](CO)NC(=O)[C@H](C(C)C)NC(=O)[C@H](CC(C)C)NC(=O)[C@H](CC(N)=O)NC(=O)[C@@H](CC(C)C)NC(=O)[C@H](C)N(C)C(=O)[C@H](C(C)C)NC(=O)[C@H](Cc3ccc(-c4ccccc4)cc3)NC(=O)[C@H](CC(C)C)NC(=O)[C@H](Cc3c[nH]c4ccccc34)NC(=O)[C@H](CC(=O)O)NC2=O)c1 [Compound 1518] ({CH2CO}-F[Phe(3-Me)]DWL[Bip]V[NMeA][dL]NLVSCG-NH2; thioether N-14) | 0.05 |
| CC(C)C[C@@H]1NC(=O)[C@H](CCN)NC(=O)[C@@H](CC(C)C)NC(=O)[C@H](C)N(C)C(=O)[C@H](CCCNC(=N)N)NC(=O)[C@H](Cc2ccc(-c3ccccc3)cc2)NC(=O)[C@H](C(C)C)NC(=O)[C@H](Cc2c[nH]c3ccccc23)NC(=O)[C@H](CC(=O)O)NC(=O)[C@H](Cc2ccc(O)cc2)NC(=O)[C@H](Cc2ccccc2)NC(=O)CSC[C@@H](C(=O)N[C@@H](CO)C(N)=O)NC(=O)[C@H]([C@@H](C)O)NC(=O)[C@H](C(C)C)NC1=O [Compound 1178] ({CH2CO}-FYDWV[Bip]R[NMeA][dL][Dab]LVTCS-NH2; thioether N-14) | 0.05 |
| CCC(C)[C@@H]1NC(=O)[C@H](Cc2ccc(-c3ccccc3)cc2)NC(=O)[C@H](C(C)C)NC(=O)[C@H](Cc2c[nH]c3ccccc23)NC(=O)[C@H](CC(=O)O)NC(=O)[C@H](Cc2ccc(O)cc2)NC(=O)[C@H](CC(N)=O)NC(=O)CSC[C@@H](C(=O)N[C@@H](C)C(N)=O)NC(=O)[C@H](CO)NC(=O)[C@H](C(C)C)NC(=O)[C@H](CC(C)C)NC(=O)[C@H](CCN)NC(=O)[C@@H](CC(C)C)NC(=O)[C@H](C)N(C)C1=O (stereo partly drawn) [Compound 2070] ({CH2CO}-NYDWV[Bip][Ile(3ξ)][NMeA][dL][Dab]LVSCA-NH2; thioether N-14) | 0.05 |
